# Where a chain is given by its changes, count along the chain named. In names and notes the source's numbering stands.
# B1: PhnL (natural protein, Escherichia coli)
# chain: MINVQNVSKTFILHQQNGVRLPVLNRASLTVNAGECVVLHGHSGSGKSTLLRSLYANYLPDEGQIQIKHGDEWVDLVTAPARKVVEIRKTTVGWVSQFLRVIPRISALEVVMQPLLDTGVPREACAAKAARLLTRLNVPERLWHLAPSTFSGGEQQRVNIARGFIVDYPILLLDEPTASLDAKNSAAVVELIREAKTRGAAIVGIFHDEAVRNDVADRLHPMGASS
# notes: PhnL, non-transporter ABC protein of the Escherichia coli phn operon; untagged; β hairpin extension residues 7-14; Identified in the complex by mass spectrometry and by the EM density; also called PhnL subunit; ABC module PhnL; source: E. coli Lemo21 (pRBS01 or pRBS01-PhnK E171Q), co-expressed, purified as part of the complex through Strep-tagged PhnK
# B2: PhnI (natural protein, Escherichia coli)
# chain: MYVAVKGGEKAIDAAHALQESRRRGDTDLPELSVAQIEQQLNLAVDRVMTEGGIADRELAALALKQASGDNVEAIFLLRAYRTTLAKLAVSEPLDTTGMRLERRISAVYKDIPGGQLLGPTYDYTHRLLDFTLLANGEAPTLTTADSEQQPSPHVFSLLARQGLAKFEEDSGAQPDDITRTPPVYPCSRSSRLQQLMRGDEGYLLALAYSTQRGYGRNHPFAGEIRSGYIDVSIVPEELGFAVNVGELLMTECEMVNGFIDPPGEPPHFTRGYGLVFGMSERKAMAMALVDRALQAPEYGEHATGPAQDEEFVLAHADNVEAAGFVSHLKLPHYVDFQAELELLKRLQQEQNHG
# notes: PhnI, subunit of carbon-phosphorus lyase, Escherichia coli phn operon; untagged, encoded on the expression plasmid; Whole phn genes amplified from pBW120; also called PhnI subunit of the C–P lyase core complex
# B3: PhnK E171Q with a C-terminal TEV-2xStrep-tag (natural protein, Escherichia coli)
# chain: MNQPLLSVNNLTHLYAPGKGFSDVSFDLWPGEVLGIVGESGSGKTTLLKSISARLTPQQGEIHYENRSLYAMSEADRRRLLRTEWGVVHQHPLDGLRRQVSAGGNIGERLMATGARHYGDIRATAQKWLEEVEIPANRIDDLPTTFSGGMQQRLQIARNLVTHPKLVFMDQPTGGLDVSVQARLLDLLRGLVVELNLAVVIVTHDLGVARLLADRLLVMKQGQVVESGLTDRVLDDPHHPYTQLLVSSVLQN
# notes: PhnK, non-transporter ABC protein of the Escherichia coli phn operon, with the Walker B mutation E171Q; also called Phn(GHIJKL)2-PhnK E171Q; not shown: 2xStrep-tag (after a TEV site), C-terminal, kept
# B4: PhnK wild type, TEV-2xStrep-tag removed with TEV protease (natural protein, Escherichia coli)
# chain: B3 chain with Q171E
# notes: PhnK, non-transporter ABC protein of the Escherichia coli phn operon; Residues of the TEV site probably stay at the C-terminus after cleavage; also called wild type PhnK; not shown: 2xStrep-tag (after a TEV site), C-terminal, cleaved
# Legend:
# [1] = target: T1, Phn(GHIJKL)2 (ATPase assay) (Escherichia coli, UniProt P16678+P16679); conditions: 1 or 5 mM ATP, Mg2+, pH 7.5, 37 °C (coupled assay); hydrolysis by PhnK and PhnL
# T1 construct: gene phnK
# [2] = target: T2, Phn(GHIJKL)2 (ATPase assay) (Escherichia coli, UniProt P16678+P16679, P16678:E171Q); conditions: 1 or 5 mM ATP, Mg2+, pH 7.5, 37 °C (coupled assay); hydrolysis by PhnK and PhnL
# T2 construct: gene phnK
# [3] = target: Phn(GHIJKL)2, PhnL nucleotide-binding site (Escherichia coli, UniProt P16679); conditions: ATP turnover (1.5 mM ATP, 6 mM MgCl2, 37 °C, 15 s); both PhnL sites, dimer open; PhnK holds ADP + Pi
# [4] = target: T3, Phn(GHIJK)2 closed, Zn2+ site at the PhnI-PhnJ interface (His site) (Escherichia coli, UniProt P16687+P16688); assay: cryo-EM structure, […] Å; format: binding; conditions: co-purified ligand modelled from density, identity not confirmed by mass spectrometry, absent in open state
# T3 construct: class without PhnL density from the purified wild-type Phn(GHIJKL)2 sample (pRBS01, TEV-treated PhnK Strep-tag); with Alpha-D-ribose 1-methylphosphonate 5-triphosphate synthase subunit PhnH
# [5] = target: T4, Phn(GHIJKL)2, PhnK nucleotide-binding site (Escherichia coli, UniProt P16678, E171Q); assay: cryo-EM structure, […] Å; conditions: 5 mM AMPPNP, 5 mM MgCl2, pH 7.5; both PhnK sites, closed dimer; PhnL empty
# T4 construct: hetero-dodecamer, 327 kDa, expressed in E. coli Lemo21 from pRBS01 (phn genes from pBW120); C-terminal TEV-2xStrep-tag on PhnK, TEV-treated for wild-type cryo-EM sample; with Alpha-D-ribose 1-methylphosphonate 5-triphosphate synthase subunit PhnL; Alpha-D-ribose 1-methylphosphonate 5-phosphate C-P lyase; Alpha-D-ribose 1-methylphosphonate 5-triphosphate synthase subunit PhnI; Alpha-D-ribose 1-methylphosphonate 5-triphosphate synthase subunit PhnH
# [6] = target: T5, Phn(GHIJKL)2, PhnK nucleotide-binding site (Escherichia coli, UniProt P16678); assay: cryo-EM structure, […] Å; conditions: ATP turnover (1.5 mM ATP, 6 mM MgCl2, 37 °C, 15 s); post-hydrolysis state, ADP + Pi in PhnK site
# T5 construct: hetero-dodecamer, 327 kDa, expressed in E. coli Lemo21 from pRBS01 (phn genes from pBW120); C-terminal TEV-2xStrep-tag on PhnK, TEV-treated for wild-type cryo-EM sample; with Alpha-D-ribose 1-methylphosphonate 5-triphosphate synthase subunit PhnL; Alpha-D-ribose 1-methylphosphonate 5-phosphate C-P lyase; Alpha-D-ribose 1-methylphosphonate 5-triphosphate synthase subunit PhnI; Alpha-D-ribose 1-methylphosphonate 5-triphosphate synthase subunit PhnH
# [7] = target: the molecule itself; assay: cryo-EM structure; wild type Phn(GHIJKL)2 purified as a complex with ATP and EDTA, then 1.5 mM ATP and 6 mM MgCl2, 15 s at 37 °C (ATP turnover); 3D classes: Phn(GHIJKL)2 with ADP + Pi, Phn(GHIJK)2 closed, Phn(GHIJK)2 open
# [8] = target: the molecule itself; assay: cryo-EM structure; Phn(GHIJKL)2-PhnK E171Q co-expressed from the phnGHIJKLMNOP plasmid and purified as a complex on StrepTrap with AMPPNP; 2.5 mg/mL; 25 mM HEPES/KOH pH 7.5, 125 mM KCl, 5 mM MgCl2, 5 mM BME
molecule,measurement,setting,value
Nc1ncnc2c1ncn2[C@@H]1O[C@H](COP(=O)(O)OP(=O)(O)OP(=O)(O)O)[C@@H](O)[C@H]1O [ATP],ion exchange of nucleotides; coupled pyruvate kinase / lactate dehydrogenase ATP,[1],clear ATPase activity for the wildtype PhnGHIJKL complex
same,ion exchange of nucleotides; coupled pyruvate kinase / lactate dehydrogenase ATP,[2],we observed a significantly reduced ATPase activity
same,"cryo-EM structure, 1.9 Å",[3],binding of ATP to both nucleotide binding sites in PhnL
"O=P(O)(O)OC[C@H]1O[C@@H]2OP(=O)(O)O[C@@H]2[C@@H]1O [5-phospho-α-D-ribose-1,2-cyclic-phosphate]","cryo-EM structure, 2.0 Å",[4],"we were able to model the ligand as 5-phospho-α-D-ribose-1,2-cyclic-phosphate"
Nc1ncnc2c1ncn2[C@@H]1O[C@H](COP(=O)(O)OP(=O)(O)NP(=O)(O)O)[C@@H](O)[C@H]1O [AMPPNP],"cryo-EM structure, 2.1 Å",[5],clear density for AMPPNP allowed for modelling of a nucleotide in both active site pockets
Nc1ncnc2c1ncn2[C@@H]1O[C@H](COP(=O)(O)OP(=O)(O)O)[C@@H](O)[C@H]1O [ADP],"cryo-EM structure, 1.9 Å",[6],contains ADP and Pi and consequently represents a true ATP post-hydrolysis state
B1,binding result,[7],binds
B2,binding result,[7],binds
B3,binding result,[8],binds
B4,binding result,[7],binds

# — publication PMC9947105, “Structural remodelling of the carbon–phosphorus lyase machinery by a dual ABC ATPase” (Nature Communications, 2023)
